This note sets out measurements from patent US8952054B2, “Small molecule inhibitors of MUC1 and methods of identifying the same” (Dana-Farber Cancer Institute, Inc., priority 2010, dated 2015).

Test [1] concerns MUC1. In words: MUC1 mRNA (qRT-PCR) and MUC1-C protein (immunoblot) in MCF-7 cells. The test is classed as cell-based, human. The following applies: for MUC1 mRNA levels: MCF-7, 75 μM, 3 d, qRT-PCR; for MUC1-C protein in the nucleus / MUC1-C protein in whole cell lysates: MCF-7, 3 days. As to the method:
FIGS. 14A-E—Apigenin suppresses MUC1 expression in MCF-7 cells. (FIG. 14A) MCF-7 cells were treated with DMSO vehicle, 75 μM apigenin or 75 μM baicalein for 3 d. Total RNA was assayed for MUC1 mRNA levels by qRTPCR. The results (mean+SD of 3 determinations) are expressed as relative MUC1 mRNA levels as compared to that obtained in cells treated with DMSO. (FIGS. 14B-C) MCF-7 cells were treated with the indicated concentrations of apigenin and baicalein for 3 days. Nuclear (FIG. 14B) and whole cell lysates (FIG. 14C) were immunoblotted with the indicated antibodies. D. Lysates from MCF-7 cells were infected to stably express a control lentivirus and one with a MUC1 shRNA were immunoblotted with the indicated antibodies. (FIG. 14E) The indicated MCF-7 cells were treated with […] apigenin for 3 d. Viable cell number was determined by the MTS assay. The results (mean+SD of 3 determinations) are expressed as percentage of control growth in the presence of DMSO.

Test [2] relates to MUC1 promoter. In words: MUC1-C occupancy on the MUC1 promoter. It is filed as cell-based.
For test [3], the system named is ZR-75-1 cells. In words: Cell cycle distribution, apoptosis and necrosis by flow cytometry, ZR-75-1. The test is classed as cell-based, human. To be noted: ZR-75-1, 5 μM; for necrosis (propidium iodide): detectable at 72 h, more prominent at 96 h. As to the method: FIGS. 3A-D. MUC1/CQC peptide induces S phase arrest and necrosis. ZR-75-1 (FIGS. 2A-B) and MCF-7 (FIGS. 2C-D) cells were treated with 5 μM MUC1/CQC or MUC1/AQA for 3 and 4 d. Cells were fixed and analyzed for cell cycle distribution by flow cytometry (FIGS. 2A and 2C). The percentage of cells in G1, S and G2/M phases is included in the panels. Cells were also stained with propidium iodide and analyzed by flow cytometry for necrosis (FIGS. 2B and 2D). The percentage of necrotic cells is included in the panels.
Cells were harvested, washed with PBS, fixed with 80% ethanol, and incubated in PBS containing 40 μg/ml RNAse and 40 μg/ml propidium iodide for 30 min at 37° C. Cell cycle distribution was determined by flow cytometry. Sub-G1 DNA content was assessed by staining ethanol-fixed and citrate buffer-permeabilized cells with propidium iodide and monitoring by flow cytometry as described (Yin et al., 2007). For assessment of necrosis, cells were incubated with 1 μg/ml propidium iodide/PBS for 5 min at room temperature and then monitored by flow cytometry as described (Yin et al., 2007).

The subject of test [4] is ZR-75-1 breast tumor xenografts. The test can be described thus: ZR-75-1 breast tumor xenografts in nude mice. The test is classed as in vivo, Balb-c nu/nu mice. As to the method:
FIGS. 5A-C. MUC1/CQC peptide blocks growth of ZR-75-1 breast tumor xenografts. (FIG. 5A) Four to six week-old female Balb-c nu/nu mice were implanted with 17-β-estradiol plugs. After 24 h, ZR-75-1 breast cancer cells (imbedded in matrigel) were injected subcutaneously in the flank. When tumors were ˜150 mm3, the mice were paired matched into groups and injected intraperitoneally with PBS (vehicle control; closed squares), 50 mg/kg MUC1/AQA peptide (control peptide; open squares) or 10 mg/kg MUC1/CQC peptide (closed triangles) daily for 21 d. Another group was treated with 50 mg/kg MUC1/CQC peptide daily for 6 d (open triangles). Mice were weighed twice weekly and tumor measurements were performed every 4 d. (FIGS. 5B and 5C). On day 24 (asterisk), tumors harvested from the control group and the group treated with 50 mg/kg/d×6 d were stained with H&E (FIG. 5B) and with an antibody against MUC1 (FIG. 5C).
To determine if administration of the MUC1/CQC peptide is associated with effects on body weight, five female nude (nu/nu) mice were injected intraperitoneally (IP) once each day at a dose of 50 mg/kg. […] To assess anti-tumor activity, ZR-75-1 cells (1×10^7) were implanted subcutaneously into the flanks of nude mice. After 12 d, mice bearing tumors of approximately 150 mm^3 were treated with the MUC1/CQC peptide at doses of 10 and 50 mg/kg/d. As controls, mice were treated with vehicle alone or with the MUC1/AQA peptide. Administration of the MUC1/CQC peptide at 10 mg/kg/d×21 d slowed growth as compared to that obtained with the MUC1/AQA peptide given at 50 mg/kg/d (FIG. 5A). […] Consequently, treatment was stopped and the mice were monitored for regrowth. […] To assess in part the basis for the activity, tumors harvested from control and treated mice were examined by histopathology. […] Sections of the tumors were also stained with an antibody against MUC1.

For the compound `O=c1cc(-c2ccc(O)cc2)oc2cc(O)cc(O)c12` [Apigenin, 4′,5,7-trihydroxyflavone], in test [1], the “MUC1 mRNA levels” value is reported as “downregulation of MUC1 mRNA levels”, the “MUC1-C protein in the nucleus” value was “decreased expression of the MUC1-C protein” and the “MUC1-C protein in whole cell lysates” value is listed as “decreased expression of the MUC1-C protein”. For the same compound, the “MUC1-C occupancy on the MUC1 promoter” value in test [2] is “blocked MUC1-C occupancy on the MUC1 promoter”.
Turning to `O=c1cc(-c2ccccc2)oc2cc(O)c(O)c(O)c12` [Baicalein, 5,6,7-trihydroxyflavone, reference compound], in test [1], the “MUC1 mRNA levels” value is “no apparent effect”, the “MUC1-C protein in the nucleus” value is “not” and the “MUC1-C protein in whole cell lysates” value is reported as “not”. In addition, the “MUC1-C occupancy on the MUC1 promoter” value in test [2] was “not”.
On to `CC[C@H](C)[C@H](NC(=O)[C@H](CC(=O)O)NC(=O)[C@H](CC(C)C)NC(=O)[C@H](CCC(N)=O)NC(=O)CNC(=O)[C@H](Cc1ccc(O)cc1)NC(=O)[C@H](CC(N)=O)NC(=O)[C@H](CCCCN)NC(=O)[C@H](CCCNC(=N)N)NC(=O)[C@H](CCCNC(=N)N)NC(=O)[C@H](CS)NC(=O)[C@H](CCC(N)=O)NC(=O)[C@H](CS)NC(=O)[C@@H](CCCNC(=N)N)NC(=O)[C@@H](CCCNC(=N)N)NC(=O)[C@@H](CCCNC(=N)N)NC(=O)[C@@H](CCCNC(=N)N)NC(=O)[C@@H](CCCNC(=N)N)NC(=O)[C@@H](CCCNC(=N)N)NC(=O)[C@@H](CCCNC(=N)N)NC(=O)[C@@H](CCCNC(=N)N)NC(=O)[C@H](N)CCCNC(=N)N)C(=O)N[C@@H](Cc1ccccc1)C(=O)N1CCC[C@H]1C(=O)O` [MUC1/CQC], for which the “sub-G1 DNA content (apoptosis)” value in test [3] is reported as “little if any accumulation of cells with sub-G1 DNA content”. In addition, the cell cycle distribution entry in test [3] (72 h) was “substantial arrest in S phase”; in test [3] (96 h), “S phase population was decreased”. Also, in test [3], the “necrosis (propidium iodide)” value is “induction of necrosis”. The tumor growth result in test [4] (10 mg/kg/d × 21 d IP, versus MUC1/AQA 50 mg/kg/d) is reported as “slowed growth”; in test [4] (50 mg/kg/d IP, initial 7 d of treatment), “blocked growth”. Moreover, in test [4] (50 mg/kg/d group, next 17 d), the “tumor regrowth after treatment stopped” value is on record as “no detectable growth”. In test [4] (10 and 50 mg/kg, versus vehicle or MUC1/AQA), the “tumor histopathology (H&E)” value was “markedly necrotic”.
Regarding “MUC1/AQA: control peptide in which the CQC motif was altered to AQA (SEQ ID NO: 11) (AQARRKNYGQLDIFP) [reference compound]”, the “necrosis (propidium iodide)” value in test [3] is reported as “not”. Besides, the “MUC1 expression in tumor sections (antibody staining)” value in test [4] (versus control tumors) is given as “marked down-regulation of MUC1 expression”.
